Measured values from patent US20100314318A1, “HALOGENATED AMIDE BIOCIDAL COMPOUNDS AND METHODS FOR TREATING WATER SYSTEMS AT NEAR NEUTRAL TO HIGH PH” (priority 2009, published 2010).
Read-outs that look alike come from different tables or passages of the source.

Experiments:
[1] = tested on: Pseudomonas aeruginosa ATCC 10145; experiment: Bactericidal efficacy in synthetic salts water pH 8.5; type: cell-based; details: for Dosage required for 3 log10 bacterial reduction (ppm, active): 37° C.
Protocol: A sterile synthetic salts water is prepared and inoculated with Pseudomonas aeruginosa ATCC 10145 at about 10^7 CFU/mL. The synthetic water is prepared to contain (in 1 liter deionized water) the following: CaCl2, 0.2203 g; MgSO4, 0.1847 g; and NaHCO3, 0.2033 g. The final pH of the synthetic cooling water is adjusted to 8.5. Aliquots of the cell suspension are then treated with biocides at selected dosage levels. The same contaminated water sample without biocide is used as control. After incubating at 37° C. for different time intervals, numbers of surviving bacteria are enumerated using a serial dilution method. After incubating for 24 hr, all cell suspensions are reinoculated with Pseudomonas aeruginosa ATCC 10145 at 10^6 CFU/mL. The efficacy results for […]

[2] = tested on: bacteria isolated from Cooling Tower water; experiment: Efficacy in sterile artificial Cooling Tower water (approx. pH 8.5); type: cell-based; details: 30° C.
[3] = tested on: amoeba (Acanthamoeba polypohaga) fed Legionella pneumophila (AfLp); type: cell-based; details: Amoeba fed Legionella
Free Legionella = type: cell-based, Legionella pneumophila
[4] = tested on: bacteria isolated from field; experiment: Efficacy in semi-synthetic metal working fluid; type: cell-based; details: room temperature, MWF

Row | SMILES | Minimum biocide dosage (ppm, active) needed for at least 3 log10 bacterial reduction ([2]; 1 h) | Minimum biocide dosage (ppm, active) needed for at least 3 log10 bacterial reduction ([2]; 3 h) | Minimum biocide dosage (ppm, active) needed for at least 3 log10 bacterial reduction ([2]; 24 h) | Minimum biocide dosage (ppm, active) needed for at least 3 log10 bacterial reduction ([2]; 48 h, reinoculated) | Minimum biocide dosage (ppm, active) needed for at least 3 log10 bacterial reduction ([2]; 72 h, reinoculated) | Minimum biocide dosage (ppm, active) needed for at least 3 log10 bacterial reduction ([2]; 96 h, reinoculated) | Active concentration (ppm) required for complete kill (6 log reduction) ([3]; 2 hours) | Active concentration (ppm) required for complete kill (6 log reduction) ([3]; 24 hours) | Active concentration (ppm) required for complete kill (6 log reduction) (Free Legionella; 2 hours) | Active concentration (ppm) required for complete kill (6 log reduction) (Free Legionella; 24 hours) | also measured
1 | N#CC(Br)(Br)C(=O)NCCCO [DBCHA, 2,2-Dibromo-2-cyano-N-(3-hydroxypropyl)acetamide] |  |  |  |  |  |  |  |  |  |  | Dosage required for 3 log10 bacterial reduction (ppm, active) ([1]; 1 hr, pH 8.5): 4.4 ppm; Dosage required for 3 log10 bacterial reduction (ppm, active) ([1]; 3 hr, pH 8.5): 4.4 ppm; Dosage required for 3 log10 bacterial reduction (ppm, active) ([1]; 24 hr, pH 8.5): 9.9 ppm; Dosage required for 3 log10 bacterial reduction (ppm, active) ([1]; 48 hr, pH 8.5, reinoculated after 24 hr): 33.3 ppm; long term bactericidal efficacy compared with DBNPA ([1]; after 48 hour incubation and rechallenge with P. aeruginosa cells): better long term efficacy than DBNPA
2 | CC1(C)C(=O)N(Cl)C(=O)N1Br [BCDMH, 1-Bromo-3-chloro-5,5-dimethylhydantoin] | 7.0 ppm | 26.0 ppm | >70.0 ppm | >70.0 ppm | >70.0 ppm | >70.0 ppm |  |  |  |  | 
3 | CCCCCCCCCC[N+](C)(C)CCCCCCCCCC.[Cl-] [DDAC, didecyl dimethyl ammonium chloride] |  |  |  |  |  |  | 60 ppm | 40 ppm | 20 ppm | 15 ppm | 
4 | CCCCCCCC[N+](C)(C)CCCCCCCC.[Cl-] [Dioctyl dimethyl ammonium chloride] | 29.0 ppm | 29.0 ppm | 56.0 ppm | 56.0 ppm | 79.0 ppm | >79.0 ppm |  |  |  |  | 
5 | O=CCCCC=O [Glutaraldehyde] | 36.0 ppm | 26.0 ppm | 26.0 ppm | 51.0 ppm | 51.0 ppm | 71.0 ppm | 20 ppm | 15 ppm | 10 ppm | 5 ppm | 
6 | CCN1CN(CC)CN(CC)C1 [Triazine, 1,3,5-triethylhexahydro-1,3,5-triazine] |  |  |  |  |  |  |  |  |  |  | Minimum dosage (ppm, active) required for at least 3 log10 reduction in bacterial counts ([4]; 2 h): 1934 ppm; Minimum dosage (ppm, active) required for at least 3 log10 reduction in bacterial counts ([4]; 4 h): 1487 ppm; Minimum dosage (ppm, active) required for at least 3 log10 reduction in bacterial counts ([4]; 24 h): 1144 ppm; Minimum dosage (ppm, active) required for at least 3 log10 reduction in bacterial counts ([4]; 48 h): 1144 ppm; Minimum dosage (ppm, active) required for at least 3 log10 reduction in bacterial counts ([4]; 72 h): 1144 ppm; Minimum dosage (ppm, active) required for at least 3 log10 reduction in bacterial counts ([4]; 96 h): 1144 ppm
